Data: ChEMBL document CHEMBL1201862, “PubChem BioAssay data set” (2004)
Values belong to the molecule of their own block, whether it stands above or below them. Active and inactive are the calls of the source.

Columns and labels:
[1] = molecular target: T1, Cytochrome P450 1A2 (Homo sapiens, UniProt P05177);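 note: PubChem cytochrome P450 panel assay, CYP1A2 panel member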
T1 sequence (P05177 whole entry): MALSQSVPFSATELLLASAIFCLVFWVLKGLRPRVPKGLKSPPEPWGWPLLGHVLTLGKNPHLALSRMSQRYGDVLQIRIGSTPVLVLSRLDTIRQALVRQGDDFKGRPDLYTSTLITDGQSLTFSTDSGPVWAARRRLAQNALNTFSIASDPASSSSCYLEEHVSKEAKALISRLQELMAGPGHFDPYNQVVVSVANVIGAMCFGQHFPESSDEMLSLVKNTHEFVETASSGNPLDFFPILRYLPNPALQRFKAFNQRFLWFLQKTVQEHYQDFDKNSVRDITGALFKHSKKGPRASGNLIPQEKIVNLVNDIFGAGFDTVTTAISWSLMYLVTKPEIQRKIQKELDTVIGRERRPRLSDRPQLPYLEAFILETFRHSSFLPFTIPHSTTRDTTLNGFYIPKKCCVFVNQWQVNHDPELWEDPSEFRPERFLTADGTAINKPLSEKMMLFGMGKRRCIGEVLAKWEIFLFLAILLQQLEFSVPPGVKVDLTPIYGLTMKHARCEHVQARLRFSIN

[2] = viability of uninfected HEp-2 cells – cell-based, HTS, cytotoxicity control for RSV inhibitor project, dose response (AID 2410); type: functional; conditions: human respiratory syncytial virus
[3] = molecular target: Cytochrome P450 2C19 (Homo sapiens, UniProt P33261); assay: Cytochrome panel assay with activity outcomes. Panel member name: p450-cyp2c19 Compounds with AC50 equal or less than 10 uM are considered active; type: functional
Sequence of Cytochrome P450 2C19 (P33261 whole entry): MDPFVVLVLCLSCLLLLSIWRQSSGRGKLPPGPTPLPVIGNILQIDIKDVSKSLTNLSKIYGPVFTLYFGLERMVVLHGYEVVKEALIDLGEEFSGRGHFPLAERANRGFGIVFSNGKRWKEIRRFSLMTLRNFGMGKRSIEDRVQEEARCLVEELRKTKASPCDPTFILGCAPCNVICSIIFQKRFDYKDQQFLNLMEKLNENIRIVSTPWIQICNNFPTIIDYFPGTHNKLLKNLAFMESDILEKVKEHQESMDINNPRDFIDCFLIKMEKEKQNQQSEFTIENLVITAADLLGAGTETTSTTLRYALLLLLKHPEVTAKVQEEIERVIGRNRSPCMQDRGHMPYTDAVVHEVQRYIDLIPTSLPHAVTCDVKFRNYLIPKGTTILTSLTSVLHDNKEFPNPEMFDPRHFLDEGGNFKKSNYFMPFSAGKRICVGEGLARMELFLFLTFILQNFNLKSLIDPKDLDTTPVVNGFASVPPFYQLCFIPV

[4] = NIH3T3 cell viability loss – ATP luminescence, mouse fibroblasts, counter-screen, dose response (AID 2010); type: functional, cell-based;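 note: cells exposed to compound for about 90 hours before reading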
[5] = Trypanosoma cruzi growth suppression in host cells – NIH3T3 host cells, beta-gal luminescence, confirmation (AID 2044); type: functional, cell-based;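 note: intracellular parasites grown in NIH/3T3 mouse fibroblasts as host cells; luminescent beta-galactosidase reporter signal from transgenic T. cruzi replicating inside host cells; inhibitors lower the luminescence signal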
[6] = system: Streptococcus sp. 'group A'; assay: Streptococcus pyogenes SK(-)GAS viability under kanamycin – luminescence, BacTiterGlo, confirmation, counter-screen for streptokinase expression inhibitor project, dose response (AID 1900); type: functional, organism-based
[7] = system: Streptococcus; assay: GAS UMAA2166 growth inhibition – luminescence, BacTiterGlo, counter-screen for streptokinase expression inhibitor project, dose response (AID 1915); type: functional, organism-based;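 note: potency for reduction of bacterial viability or growth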
[8] = molecular target: T2, Heat shock factor protein 1 (Mus musculus, UniProt P38532); assay: decrease of HSF1-responsive luciferase luminescence – cell-based, NIH3T3, dose retest, confirmation (AID 2382); type: functional;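 note: NIH3T3 fibroblasts with HSF1-driven luciferase reporter stressed by proteasome inhibitor MG132; luminescence from HSF1-driven luciferase expression after 8 hours of MG132 stress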
T2 sequence (P38532 whole entry): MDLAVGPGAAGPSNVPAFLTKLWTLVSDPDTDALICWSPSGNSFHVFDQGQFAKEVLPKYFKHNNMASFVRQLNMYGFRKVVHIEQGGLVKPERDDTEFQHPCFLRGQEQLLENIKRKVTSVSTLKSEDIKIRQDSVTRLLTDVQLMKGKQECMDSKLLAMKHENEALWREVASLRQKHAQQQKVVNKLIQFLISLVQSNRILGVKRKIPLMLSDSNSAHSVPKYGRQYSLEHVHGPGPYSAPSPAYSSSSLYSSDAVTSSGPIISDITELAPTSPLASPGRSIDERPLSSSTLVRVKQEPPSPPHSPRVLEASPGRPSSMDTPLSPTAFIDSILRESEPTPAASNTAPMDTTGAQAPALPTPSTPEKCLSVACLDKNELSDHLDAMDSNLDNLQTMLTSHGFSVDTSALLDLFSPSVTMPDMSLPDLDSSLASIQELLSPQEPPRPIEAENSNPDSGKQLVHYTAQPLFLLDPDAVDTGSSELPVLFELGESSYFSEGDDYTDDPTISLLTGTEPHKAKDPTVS

- AC50 [1]: 17.8 µM (inconclusive)
SMILES: Fc1ccc(Cn2c(SCc3ccc(F)c(F)c3)nnc2C(F)(F)F)cc1

- AC50 [1]: 12.6 µM (inconclusive)
SMILES: O=C(NC(NC(=S)Nc1cc(Cl)ccc1Cl)C(Cl)(Cl)Cl)c1ccco1 (stereo unspecified)

SMILES: O=C(c1ccccc1)c1sc(N2CCCCCC2)nc1-c1ccccc1
- CC50 [2]: 31.1 µM (active)

SMILES: CCCCOc1ccccc1C1C(C(=O)OC)=C(C)N(C)C(C)=C1C(=O)OC
- CC50 [2]: > 50 µM (active)

- AC50 ([3]; read-out: AC50): 15.8 µM (inconclusive)
- AC50 [1]: 28.2 µM (inconclusive)
SMILES: COc1ccc(NC(=S)N2CCN(C/C=C/c3ccccc3)CC2)cc1OC

SMILES: Cc1c(C(=O)NC(=S)NCc2cccnc2)oc2ccccc12
- EC50 [4]: > 60 µM (inconclusive)
- EC50 [5]: 1.93 µM (active)

SMILES: SC(COCc1ccccc1)CN1CCN(Cc2ccc3c(c2)OCO3)CC1 (stereo unspecified)
- EC50 [4]: > 60 µM (not active)
- EC50 [5]: 2.1 µM (active)

SMILES: CCOC(=O)N1CCN(C(=O)c2ccc3c(c2)NC(=O)/C(=C/c2ccccc2)S3)CC1
- EC50 [6]: 1.48 µM (active)
- EC50 [7]: 4.42 µM (active)

- AC50 [3]: inconclusive
SMILES: O=C(O)c1cccnc1SCC(=O)N1CCCCCC1

- EC50 [8]: > 195 µM (not active)
SMILES: CSc1nc2ccc(NS(=O)(=O)c3ccc([N+](=O)[O-])cc3)cc2s1

SMILES: COc1ccc(CN(Cc2cccnc2)S(=O)(=O)c2ccc(-n3cnnn3)c(C)c2)cc1OC
- EC50 [4]: > 30 µM (not active)
- EC50 [5]: 2.19 µM (active)

- EC50 [8]: 6 µM (active)
SMILES: CCOC(=O)c1cnc2ccccc2c1Nc1ccc2c(c1)OCCO2

- EC50 [8]: > 195 µM (not active)
SMILES: O=C(c1cc(Cl)ccc1Cl)N1CCOCC1

- AC50 ([3]; read-out: AC50): 3.16 µM (inconclusive)
SMILES: O=c1c(-c2ccccc2)nc2cncnc2n1C1CC1

- AC50 [1]: 3.55 µM (inconclusive)
SMILES: O=C(Nc1ccccc1)N1CCSc2cc(Cl)ccc21

SMILES: CCCC(C)n1nc(O)c2c1NC(=O)CSC2c1ccc(OC)c(OC)c1 (stereo unspecified)
- EC50 [8]: > 195 µM (not active)

SMILES: CN1CCC(OC(=O)c2ccccc2)CC1
- EC50 [4]: 58.6 µM (active)
- EC50 [5]: 0.263 µM (active)

SMILES: COC(=O)c1ccc(/C=C/c2ccc3cccc(OC(C)=O)c3n2)cc1
- EC50 [6]: 2.08 µM (active)
- EC50 [7]: 8.49 µM (active)

SMILES: CCOC(=O)N1CCN(c2cc(N)c([N+](=O)[O-])cc2F)CC1
- CC50 [2]: > 50 µM (active)

- EC50 [8]: > 195 µM (not active)
SMILES: Cc1ccc(S(=O)(=O)N(CC(=O)N2CCc3ccccc3C2)c2ccc(Cl)c(Cl)c2)cc1

SMILES: Cc1ccc(C(=O)C[n+]2cccc3cc(C)ccc32)cc1
- EC50 [4]: > 60 µM (inconclusive)
- EC50 [5]: 11.2 µM (active)

- AC50 ([3]; read-out: AC50): 39.8 µM (inconclusive)
SMILES: CC1CN(C(=O)COc2ncnc3ccccc23)CC(C)O1 (stereo unspecified)

SMILES: C[C@@H](C(=O)OC1C[C@H]2CC[C@@H](C1)N2C)c1ccc(Br)cc1 (stereo partly specified)
- AC50 [1]: 39.8 µM (inconclusive)

SMILES: CSc1nc(-c2ccc(C)cc2)nc(N)c1C#N
- CC50 [2]: 49.6 µM (active)

SMILES: O=C(c1ccc(Cn2c(=S)[nH]c3ccc(N4CCOCC4)cc3c2=O)cc1)N1CCN(c2ccc(F)cc2)CC1
- EC50 [4]: > 60 µM (not active)
- EC50 [5]: 0.583 µM (active)

- AC50 ([3]; read-out: AC50): 2.51 µM (inconclusive)
SMILES: Cc1ccc(C(C(=O)NCc2ccco2)N(C(=O)CNC(=O)c2cccs2)c2ccc(C)cc2)cc1 (stereo unspecified)

SMILES: CCc1ccccc1NC(=O)NC1CC2CCC(C1)N2Cc1cccs1 (stereo unspecified)
- AC50 ([3]; read-out: AC50): 17.8 µM (inconclusive)

SMILES: C/C(=N/NC(N)=S)c1ccc(Br)s1
- EC50 [4]: > 60 µM (not active)
- EC50 [5]: 2.07 µM (active)

SMILES: CCN(CC)CCCNC(=O)c1oc2ccc(S(=O)(=O)N3CC(C)CC(C)C3)cc2c1C (stereo unspecified)
- EC50 [4]: > 30 µM (not active)
- EC50 [5]: 0.422 µM (active)

SMILES: C/C(Cn1cnc([N+](=O)[O-])n1)=N\NC(=O)c1cccc(F)c1
- EC50 [4]: > 60 µM (not active)
- EC50 [5]: 1.39 µM (active)

SMILES: Brc1ccc(-c2csc(N/N=C/c3cccnc3)n2)cc1
- EC50 [4]: > 60 µM (not active)
- EC50 [5]: 1.44 µM (active)

SMILES: COc1cc(/C=N/NC(=O)c2cc(-c3cccc(Br)c3)nc3ccccc23)cc(OC)c1O
- CC50 [2]: 36 µM (active)

SMILES: CN/C(=N/CCSCc1nc[nH]c1C)NC#N [CIMETIDINE]
- AC50 [1]: 50.1 µM (inconclusive)
